Data as given in patent publication US10526319B2, “Halogenated quinazolin-THF-amines as PDE1 inhibitors” (H. Lundbeck A/S, priority 2014, dated 2020).

How the values were obtained:
Assay type in all cases: biochemical
Conditions in all cases: 15 nM tritium labelled cAMP, 1 h at room temperature
PDE1C = PDE1C (Homo sapiens, UniProt Q14123); test: PDE1 inhibition assay (SPA, tritium labelled cAMP), PDE1C
Protocol: (§1) PDE1A, PDE1B and PDE1C assays were performed as follows: the assays was performed in 60 μL samples containing a fixed amount of the PDE1 enzym1 (sufficient to convert 20-25% of the cyclic nucleotide substrate), a buffer (50 mM HEPES pH 7.6; 10 mM MgCl2; 0.02% Tween20), 0.1 mg/ml BSA, 15 nM tritium labelled cAMP and varying amounts of inhibitors. Reactions were initiated by addition of the cyclic nucleotide substrate, and reactions were allowed to proceed for 1 h at room temperature before being terminated through mixing with 20 μL (0.2 mg) yttrium silicate SPA beads (PerkinElmer). The beads were allowed to settle for 1 h in the dark before the plates were counted in a Wallac 1450 Microbeta counter. The measured signals were converted to activity relative to an uninhibited control (100%) and IC50 values were calculated using XlFit (model 205, IDBS).

PDE1B = PDE1B (Homo sapiens, UniProt Q01064); test: PDE1 inhibition assay (SPA, tritium labelled cAMP), PDE1B
PDE1B, sequence (Q01064 whole entry): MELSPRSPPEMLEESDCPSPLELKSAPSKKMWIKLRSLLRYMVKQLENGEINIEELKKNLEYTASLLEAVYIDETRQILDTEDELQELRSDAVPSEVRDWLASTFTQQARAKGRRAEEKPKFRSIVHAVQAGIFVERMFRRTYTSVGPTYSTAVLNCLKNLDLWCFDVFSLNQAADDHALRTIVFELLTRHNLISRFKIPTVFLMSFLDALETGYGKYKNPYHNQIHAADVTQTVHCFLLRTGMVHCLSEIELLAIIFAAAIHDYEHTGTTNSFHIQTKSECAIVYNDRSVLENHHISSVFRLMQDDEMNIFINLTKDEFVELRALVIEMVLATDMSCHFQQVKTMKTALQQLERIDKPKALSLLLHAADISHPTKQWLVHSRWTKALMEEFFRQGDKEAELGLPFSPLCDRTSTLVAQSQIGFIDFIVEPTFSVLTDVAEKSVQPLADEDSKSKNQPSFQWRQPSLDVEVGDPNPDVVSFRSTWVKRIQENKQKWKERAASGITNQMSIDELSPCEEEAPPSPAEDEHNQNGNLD
Protocol: as §1

PDE1A = PDE1A (Homo sapiens, UniProt P54750); test: PDE1 inhibition assay (SPA, tritium labelled cAMP), PDE1A
PDE1A, sequence (P54750 whole entry): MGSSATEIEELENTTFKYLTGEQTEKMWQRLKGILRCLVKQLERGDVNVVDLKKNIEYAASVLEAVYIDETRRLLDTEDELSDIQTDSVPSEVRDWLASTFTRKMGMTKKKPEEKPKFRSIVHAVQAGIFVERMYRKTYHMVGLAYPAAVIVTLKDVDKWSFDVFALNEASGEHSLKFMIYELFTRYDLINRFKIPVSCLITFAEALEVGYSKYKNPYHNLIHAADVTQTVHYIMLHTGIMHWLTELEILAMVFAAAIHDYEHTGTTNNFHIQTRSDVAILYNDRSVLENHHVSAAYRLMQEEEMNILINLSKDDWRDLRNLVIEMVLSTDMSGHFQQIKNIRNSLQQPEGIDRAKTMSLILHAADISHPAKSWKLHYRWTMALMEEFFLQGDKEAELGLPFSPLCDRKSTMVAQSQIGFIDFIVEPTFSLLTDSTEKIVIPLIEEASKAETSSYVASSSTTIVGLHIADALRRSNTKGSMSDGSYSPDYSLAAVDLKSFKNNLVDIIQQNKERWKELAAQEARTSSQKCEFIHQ
Protocol: as §1

PDE1C, sequence (Q14123 whole entry): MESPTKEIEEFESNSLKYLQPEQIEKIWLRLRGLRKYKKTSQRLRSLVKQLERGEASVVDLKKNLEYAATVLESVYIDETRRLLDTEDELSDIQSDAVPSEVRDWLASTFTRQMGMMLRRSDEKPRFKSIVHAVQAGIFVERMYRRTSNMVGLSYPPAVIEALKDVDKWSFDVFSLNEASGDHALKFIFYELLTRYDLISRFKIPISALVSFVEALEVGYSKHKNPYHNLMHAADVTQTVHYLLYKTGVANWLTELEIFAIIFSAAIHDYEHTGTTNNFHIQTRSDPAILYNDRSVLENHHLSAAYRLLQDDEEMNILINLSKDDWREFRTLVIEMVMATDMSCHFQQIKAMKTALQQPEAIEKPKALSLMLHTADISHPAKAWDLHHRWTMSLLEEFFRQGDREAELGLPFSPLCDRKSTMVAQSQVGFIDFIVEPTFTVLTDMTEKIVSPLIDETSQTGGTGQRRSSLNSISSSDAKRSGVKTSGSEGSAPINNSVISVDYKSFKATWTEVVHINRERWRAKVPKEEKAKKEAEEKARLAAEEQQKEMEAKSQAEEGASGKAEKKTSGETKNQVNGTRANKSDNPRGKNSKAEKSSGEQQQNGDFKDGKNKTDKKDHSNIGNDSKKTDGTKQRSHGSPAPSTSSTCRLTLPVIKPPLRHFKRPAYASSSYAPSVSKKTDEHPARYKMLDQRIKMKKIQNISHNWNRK

IC50 (PDE1C) | IC50 (PDE1B) | IC50 (PDE1A) | Compound
35 nM | 37 nM | 230 nM | COc1ccc2c(NC3CCOC3C)ncnc2c1Cl (single isomer, unassigned) [5 stereoisomer 2]
55 nM | 32 nM | 185 nM | COc1ccc2c(N(C)C3(C)CCOC3C)ncnc2c1F (single isomer, unassigned) [19 Stereoisomer 2]
13 nM | 26 nM | 300 nM | COc1ccc2c(N(C)C3(C)CCOC3C)ncnc2c1Cl (single isomer, unassigned) [13 Stereoisomer 4]
1200 nM | 420 nM | 2490 nM | COc1ccc2c(N(C)C3(C)CCOC3C)ncnc2c1F (single isomer, unassigned) [19 Stereoisomer 3]
410 nM | 120 nM | 600 nM | COc1ccc2c(NC3CCOC3C)ncnc2c1F (single isomer, unassigned) [3 Stereoisomer 4]
